Assay results as given in patent US8466131B2, “Ligands specific for cannabinoid receptor subtype 2” (University of Pittsburgh—of the Commonwealth System of …, priority 2007, dated 2013).
Entries after “also recorded” stand apart in the source; their conditions may differ.

Legend:
CB2 receptor = biological target: T1, CB2 receptor (Homo sapiens, UniProt P34972); assay: forskolin-stimulated cAMP assay in CB2 receptor transfected CHO-K1 cells; format: cell-based; conditions: for functional mode of ligand alone (cAMP): ligand alone at increasing concentrations 30 min prior to forskolin (20 μM), FIG. 3; for effect on CB2 agonist WIN55,212-2 response (cAMP): 1 μM antagonist, with increasing WIN55,212-2, 30 min prior to forskolin (20 μM), FIG. 2
T1 construct: expressed in transfected cells; host or cells: CHO-K1
Procedure: FIG. 2. Confluentially growing CB2 receptor transfected […] CHO-K1 cells were stimulated with forskolin (20 μM) and analyzed for cAMP expression after 30 min. The CB2 agonist WIN55, 212-2 was incubated at increasing concentrations 30 min prior to forskolin stimulation alone or in presence of 1 μM of the antagonists AM630 and the compound of Formula II.
FIG. 3. Confluentially growing CB2 receptor transfected […] CHO-K1 cells were stimulated with forskolin (20 μM) and analyzed for cAMP expression after 30 minutes. CB2 ligands were incubated at increasing concentrations 30 minutes prior to forskolin stimulation.
Cell-based Functional Bioassay Studies. […] Subsequently, further receptor biological studies were performed: i) to examine/assess the G-protein effects of the compound of Formula II upon CB2 receptor binding and ii) to test the compound of Formula II for anti-inflammatory effects.

CB2 cannabinoid receptor = biological target: T2, CB2 cannabinoid receptor (Mus musculus, UniProt P47936); assay: [3H]-CP-55,940 radiometric competition binding assay, CB2 (mouse spleen membrane); conditions: displacement of 3H-CP 55940, mouse spleen membrane; read-out: CB2 binding affinity (Ki)
T2 construct: from tissue; host or cells: frozen mouse spleen membranes
Procedure: (§1) In-vitro Bio-validation Experiment. To biologically validate the screened hit compounds above, in-vitro [^3H]-radioactive CB ligand binding assays were carried out to determine the CB receptor binding affinity (Ki) of the screened ligands by displacing [^3H]-CP-55,940. The compound of Formula II was obtained from National Cancer Institute (NCI). For each assay, a positive control with a known ligand (SR-141716A for CB1 and SR-144528 for CB2) was run to ensure the reliability of the assay.
For CB2 receptor binding studies, membranes were prepared from frozen mouse spleen. […]
(§2) The experiments were conducted based on reported procedures. […] 1999, 1(3):article 4; Abadji et al., J. Med. Chem. 1994, 37(120:1889-1893; and Abadji et al., J. Neurochem. 1999, 72(5):2032-38. Thus, the competition binding assay was performed using [3H]-CP-55,940 (1 nM) as a radioligand for the CB1 or CB2 cannabinoid receptor (rate brain or mouse spleen membranes), at 30° C. in 96-well microtiter plates, 50 μg of membrane each well re-suspended in 200 μl (final volume) binding buffer (50 mM Tris-HCl, 2.5 mM EGTA, 3 mM MgCl2, 0.1% bovine serum albumin, pH 7.4). The tested compounds were presented at varying concentrations, and the nonspecific binding was determined in the presence of 10 μM CP-55,940 or HU-210. […] The Ki values were calculated by using GraphPad Prism 5.0 (GraphPad Software, Inc.).

CB1 cannabinoid receptor = biological target: T3, CB1 cannabinoid receptor (Rattus norvegicus, UniProt P20272); assay: [3H]-CP-55,940 radiometric competition binding assay, CB1 (rat forebrain membrane); conditions: displacement of 3H-CP 55940, rat forebrain membrane; read-out: CB1 binding affinity (Ki)
T3 construct: from tissue; host or cells: rat forebrain membranes
Procedure: as §1
For CB1 receptor binding studies, rat forebrain membranes were prepared following the reported procedures. […]
as §2

T1 sequence (P34972 whole entry): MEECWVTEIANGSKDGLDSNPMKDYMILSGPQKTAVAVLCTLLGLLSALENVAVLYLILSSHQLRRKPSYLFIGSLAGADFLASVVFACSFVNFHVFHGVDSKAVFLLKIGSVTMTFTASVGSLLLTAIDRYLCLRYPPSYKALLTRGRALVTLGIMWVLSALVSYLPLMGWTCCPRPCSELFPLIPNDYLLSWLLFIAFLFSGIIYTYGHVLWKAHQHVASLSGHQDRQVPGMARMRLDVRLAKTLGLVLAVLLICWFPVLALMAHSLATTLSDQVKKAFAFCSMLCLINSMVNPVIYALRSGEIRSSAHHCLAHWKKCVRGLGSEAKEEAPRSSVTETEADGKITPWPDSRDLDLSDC
T2 sequence (P47936 whole entry): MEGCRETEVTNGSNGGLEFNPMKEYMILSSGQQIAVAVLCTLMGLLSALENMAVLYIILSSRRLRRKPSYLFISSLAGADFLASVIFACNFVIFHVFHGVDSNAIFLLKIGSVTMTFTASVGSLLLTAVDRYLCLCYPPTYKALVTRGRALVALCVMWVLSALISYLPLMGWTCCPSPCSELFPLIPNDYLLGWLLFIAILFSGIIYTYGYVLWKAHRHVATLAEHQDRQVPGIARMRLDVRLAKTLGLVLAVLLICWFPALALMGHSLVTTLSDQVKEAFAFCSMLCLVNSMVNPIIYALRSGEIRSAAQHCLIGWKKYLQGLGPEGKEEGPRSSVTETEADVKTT
T3 sequence (P20272 whole entry): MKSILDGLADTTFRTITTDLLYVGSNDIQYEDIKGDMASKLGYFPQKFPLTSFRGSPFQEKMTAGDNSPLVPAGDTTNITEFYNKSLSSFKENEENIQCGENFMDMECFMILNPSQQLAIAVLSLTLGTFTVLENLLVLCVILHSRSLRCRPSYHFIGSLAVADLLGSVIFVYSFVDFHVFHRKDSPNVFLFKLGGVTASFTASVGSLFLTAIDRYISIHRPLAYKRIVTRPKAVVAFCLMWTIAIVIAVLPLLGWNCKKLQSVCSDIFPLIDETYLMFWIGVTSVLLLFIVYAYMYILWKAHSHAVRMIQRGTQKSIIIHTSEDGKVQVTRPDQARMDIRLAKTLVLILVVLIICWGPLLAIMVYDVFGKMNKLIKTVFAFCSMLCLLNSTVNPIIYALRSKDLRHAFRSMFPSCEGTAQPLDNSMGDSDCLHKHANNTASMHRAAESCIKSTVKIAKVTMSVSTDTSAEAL

Compound: SR144528 [reference compound]
- functional mode of ligand alone (cAMP) (CB2 receptor): inverse agonist

Compound: N/C(=N\Cc1ccccc1)C(/N=N/c1ccccc1)C(=O)NCc1ccccc1 (centres unmarked) [Formula II]
- Ki (CB2 cannabinoid receptor): 31.7 nM
- Ki (CB1 cannabinoid receptor): 4180 nM
- effect on Go signaling (CB2 receptor): does not affect Go signaling
- effect on CB2 agonist WIN55,212-2 response (cAMP) (CB2 receptor): inhibits the effect of WIN55,212-2; also recorded: antagonist like the known CB2 antagonist AM630 (but weaker)
- concentration at which compound becomes an agonist (cAMP) (CB2 receptor; FIG. 3, running text): ~10 µM
- concentration at which compound is a weak agonist (cAMP) (CB2 receptor; FIG. 3 legend): > 7 mM
- impact on Gi-proteins (CB2 receptor; at concentrations up to low μM): does not have an impact on Gi-proteins
- functional mode of ligand alone (cAMP) (CB2 receptor): weak agonist at high concentration; also recorded: not an inverse agonist

Compound: COc1ccc(C(=O)c2c(C)n(CCN3CCOCC3)c3cc(I)ccc23)cc1 [AM630, reference compound]
- effect on CB2 agonist WIN55,212-2 response (cAMP) (CB2 receptor): inhibits the effect of WIN55,212-2
- functional mode of ligand alone (cAMP) (CB2 receptor): inverse agonist
